Experimental data as given in PMC6722648, “Phenazine Derivatives with Anti-Inflammatory Activity from the Deep-Sea Sediment-Derived Yeast-Like Fungus Cystobasidium laryngis IV17-028” (Marine Drugs, 2019).
pEC50: −log10 of the molar value. Read-outs that look alike come from different tables or passages of the source.

What was measured:
[1] = system: LPS-induced NO production in RAW 264.7 cells; test: NO assay: nitrite quantification (Griess) in LPS-stimulated macrophages; format: cell-based, murine; details: Mus musculus, RAW264.7, LPS 200 ng/mL, 24 h, read-out: EC50 against NO assay; for EC50: compounds 0.3-30 μg/mL
Experimental: NO2^− accumulation was used as an indicator of NO production as described previously. RAW 264.7 cells were plated at 5 × 10^5 cells/mL, pre-treated with various concentrations (0.3, 1, 3, 10 or 30 μg/mL) of 1–7 and stimulated with LPS (200 ng/mL) for 24 h. The supernatants were mixed with an equal volume of Griess reagent (1% sulfanilamide, 0.1% naphthylethylenediamine dihydrochloride and 2% phosphoric acid) and incubated at room temperature for 10 min. NaNO2 was used to generate a standard curve, and the concentration of nitrite in the medium was determined by measuring optical density at 540 nm. Cell viability was determined by XTT assay as described previously. And it was confirmed that the concentration of compounds used in this study has no significant effect on cell viability.

[2] = Stability to light and on storage (observation)

Row | Structure (SMILES) | EC50 [1] [µg/mL] | pEC50 [1] | storage stability ([2]; in the dark and fridge) | stability under the light ([2]; under the light) | colour change of yellow needle form in light ([2]; day light as well as fluorescent light, also previously reported [9]) | colour change in hydrophilic solvents under the light ([2]; methanol and dimethyl sulfoxide, under the light)
1 | CC(OC(=O)c1ccccc1N)c1cccc2nc3c(C(=O)O)cccc3nc12 (centres unmarked) [Compound 1, 6-[1-(2-aminobenzoyloxy)ethyl]-1-phenazinecarboxylic acid] | 18.1 | 4.33 | changelessly stored in the dark and fridge for several weeks | easily changed under the light | – | –
2 | C[C@@H](O)c1cccc2nc3c(C(N)=O)cccc3nc12 [Compound 2, saphenic amide] | > 30 | – | – | – | – | –
3 | C[C@@H](O)c1cccc2nc3c([C@@H](C)O)cccc3nc12 [Compound 3, saphenol] | 14.7 | 4.26 | – | – | – | –
4 | C[C@@H](O)c1cccc2nc3c(C(=O)O)cccc3nc12 [Compound 4, (R)-saphenic acid] | 6.15 | 4.64 | – | – | turned brown after several hours | quickly turned from yellow into orange
5 | O=C(O)c1cccc2nc3ccccc3nc12 [Compound 5, phenazine-1-carboxylic acid] | 17.1 | 4.12 | – | – | – | –
6 | CO[C@H](C)c1cccc2nc3c(C(=O)O)cccc3nc12 [Compound 6] | 5.53 | 4.71 | – | – | – | –
7 | CC(=O)c1cccc2nc3c(C(=O)O)cccc3nc12 [Compound 7, 6-acetyl-phenazine-1-carboxylic acid] | 5.32 | 4.70 | – | – | – | –
